Data on 14 molecules can be found in ChEMBL document CHEMBL1201862, “PubChem BioAssay data set” (2004).

Common to all, as to assay: NCI tumour cell line growth inhibition, 48 h
Experiment [1] relates to OVCAR-4.
The test system of experiment [2] is SF-295.
The subject of experiment [3] is PC-3.
The test system of experiment [4] is HCT-15.
For experiment [5], the system named is HCT-116.
The test system of experiment [6] is K562.
For experiment [7], the system named is MCF7.
For experiment [8], the system named is T47D.
Experiment [9] concerns OVCAR-3.
For experiment [10], the system named is HT-29.
Experiment [11] concerns NCI-H460.
Experiment [12] relates to NCI-H226.
Experiment [13] relates to U-251.
For experiment [14], the system named is 786-0.
In experiment [15] the test system is UACC-257.
For experiment [16], the system named is DU-145.

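Interpolation was linear, between the two tested concentrations surrounding the appropriate level; five concentrations were tested over 48 hours in 96-well plates. GI50 is the concentration that inhibits growth by half.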 Calls of active or inactive are those of the source. Cut-off read from the data, not from the text of the source: active = GI50 up to about 1.1 µM and inactive = higher. Where a SMILES comes first, the peptide text is derived from it.

As for `COC1=CC2(CC(OC)=C1OC)OC21COc2ccccc2C1=O` (stereo unspecified), the GI50 in experiment [1] is 84.5 µM (inactive); in [2] it was 61.2 µM (inactive); in [3], 84.5 µM (inactive); in [4], 65.8 µM; in experiment [5], 50.5 µM (inactive); in [6], 56.2 µM (inactive). In addition, the GI50 in [7] is 55.7 µM (inactive); in [8] it was 34.3 µM (inactive); in experiment [9], > 100 µM (inactive); in experiment [10], 51.4 µM (inactive); in experiment [11] it was 42.9 µM (inactive); in [12] it was 62.5 µM (inactive). Further, the GI50 in experiment [13] was 73.8 µM (inactive); in experiment [14] it was 37.7 µM (inactive); in experiment [15], 44.4 µM (inactive).
`O=C(O)CCCc1nc2c(n1Cc1ccccc1)C(=O)c1ccccc1C2=O`: the GI50 is 29.6 µM (inactive) in [16]; 20.2 µM (inactive) in [1]; 25.8 µM (inactive) in [2]; 52.4 µM in [4]; 28.6 µM (inactive) in experiment [5]; 42.7 µM (inactive) in experiment [6]. The GI50 is 29.6 µM (inactive) in [7]; 60.5 µM (inactive) in experiment [8]; 21.5 µM (inactive) in [9]; 34.8 µM (inactive) in [11]; 54.6 µM (inactive) in experiment [13]; > 100 µM (inactive) in experiment [14]. Further, the GI50 in [15] is 25 µM (inactive).
For `NCCCCC(N)C(=O)N1CCN(c2nc(N3CCCC3)c3nc(Cl)c(NCc4ccccc4)nc3n2)CC1` (stereo unspecified), the GI50 is 16.9 µM (inactive) in experiment [16]; 23.2 µM (inactive) in experiment [1]; 18.5 µM (inactive) in [2]; 17.8 µM (inactive) in experiment [3]; 17.7 µM in experiment [4]; 16.6 µM (inactive) in experiment [5]. The GI50 was 21.9 µM (inactive) in experiment [6]; 19.6 µM (inactive) in experiment [7]; 18.9 µM (inactive) in [9]; 18.9 µM (inactive) in experiment [10]; 17.5 µM (inactive) in experiment [11]; 20.8 µM (inactive) in experiment [12]. Further, the results for the GI50 in experiment [13], in experiment [14] and in [15] were 18.9 µM (inactive), 17.8 µM (inactive) and 18.2 µM (inactive), respectively.
On to `O=C1COc2cccnc2N1CCCCO`, for which the GI50 in experiment [16] is > 100 µM (inactive); in experiment [2], > 100 µM (inactive); in experiment [3], > 100 µM (inactive); in experiment [4], greater than 100 µM; in experiment [5], > 100 µM (inactive); in experiment [7], > 100 µM (inactive). For the same molecule, the GI50 in experiment [8] was 38.1 µM (inactive); in experiment [9], > 100 µM (inactive); in [11] it was > 100 µM (inactive); in experiment [13] it was > 100 µM (inactive); in [14], > 100 µM (inactive); in experiment [15] it was > 100 µM (inactive).
Turning to `C=C1CC[C@@H](CCC2CCC3(OC2)O[C@]2(O)CC[C@@]3(C)OC2(C)C)C(C)(C)[C@H]1C/C=C1\CCOC1=O` (stereo partly specified), the GI50 in experiment [16] was 12.5 µM (inactive); in experiment [1], 12.3 µM (inactive); in [3], 4.61 µM (inactive); in experiment [4], 11.3 µM; in [5], 0.354 µM (active); in [6], 0.0798 µM (active). Further, the GI50 in [7] was 1.76 µM (inactive); in experiment [9], 15 µM (inactive); in experiment [10], 4.93 µM (inactive); in [11] it was 16.4 µM (inactive); in experiment [12] it was 3.91 µM (inactive); in experiment [13], 15.1 µM (inactive). The GI50 was 11.8 µM (inactive) in experiment [14] and 0.507 µM (active) in experiment [15].
Take `NC(=O)C1CCCN1C(=O)C(N)Cc1ccccc1` (stereo not drawn) (H-Phe-Pro-NH2; configuration not given here): the GI50 in experiment [16] was > 100 µM (inactive); in experiment [1], > 100 µM (inactive); in experiment [2], > 100 µM (inactive); in [3] it was > 100 µM (inactive); in experiment [4], greater than 100 µM; in [5], > 100 µM (inactive). The GI50 in experiment [6], in experiment [7], in experiment [8], in experiment [9], in experiment [10] and in [11] was > 100 µM (inactive) in each case. The results for the GI50 in experiment [13] and in [15] were > 100 µM (inactive) and > 10 µM (inactive), respectively.
For `CC(OC(=O)NCn1cc(-c2ccccc2)nn1)c1ccccc1` (stereo unspecified), the GI50 in [16] is 42.1 µM (inactive); in experiment [1], > 10 µM (inactive); in [2] it was 43.8 µM (inactive); in experiment [3] it was 2.39 µM (inactive); in [4], 50.6 µM; in experiment [5], 27.9 µM (inactive). Besides, the GI50 in experiment [6] is 31.2 µM (inactive); in [7], 38.5 µM (inactive); in [10], 25.6 µM (inactive); in experiment [11] it was 46.5 µM (inactive); in [12] it was 14.9 µM (inactive); in experiment [13], 45.7 µM (inactive). Moreover, the GI50 was 88.7 µM (inactive) in [14] and 35.1 µM (inactive) in experiment [15].
On to `CC1(C)CCCCCCC2CC2CCCCCC(C)(C)C1=O` (stereo unspecified), for which the GI50 is > 100 µM (inactive) in [16]; > 100 µM (inactive) in experiment [1]; > 100 µM (inactive) in experiment [2]; > 100 µM (inactive) in [3]; 78.7 µM in [4]; 39.1 µM (inactive) in experiment [5]. The GI50 in experiment [6] was 29.9 µM (inactive); in experiment [8], 36.9 µM (inactive); in [9], 76.4 µM (inactive); in [10], 42 µM (inactive); in experiment [11] it was 66.2 µM (inactive); in experiment [12], > 100 µM (inactive). Also, the GI50 in [13] is 36.6 µM (inactive); in [14], 64 µM (inactive); in [15] it was 37.8 µM (inactive).
Take `O=C1/C(=C/c2cccc(Br)c2)Cc2ccccc21`: the GI50 in experiment [16] is 53.8 µM (inactive); in experiment [1], 38.9 µM (inactive); in experiment [2] it was 39.7 µM (inactive); in experiment [3] it was 29.9 µM (inactive); in experiment [4], 49.4 µM; in [5] it was 27.6 µM (inactive). The GI50 in experiment [6] is 58.9 µM (inactive); in experiment [7], 3.66 µM (inactive); in experiment [9], 41.6 µM (inactive); in [10] it was 45 µM (inactive); in experiment [11], 30.8 µM (inactive); in experiment [12], 21.6 µM (inactive). The GI50 was > 100 µM (inactive) in [13], > 100 µM (inactive) in experiment [14] and 91 µM (inactive) in [15].
On to `C[C@]12CC[C@H]3[C@@H](CCC4=CC(=O)CC[C@@]43C)[C@@H]1CC[C@@H]2OC(=O)c1cccc2c(=O)c3ccccc3[nH]c12`, for which the GI50 was 54.7 µM (inactive) in experiment [1]; > 100 µM (inactive) in [2]; 44.4 µM (inactive) in experiment [3]; 37.6 µM in experiment [4]; 16.3 µM (inactive) in experiment [6]; > 100 µM (inactive) in [7]. For the same molecule, the GI50 was 57.3 µM (inactive) in experiment [8]; > 100 µM (inactive) in [9]; 43.8 µM (inactive) in experiment [10]; 46.8 µM (inactive) in experiment [11]; 75.3 µM (inactive) in experiment [12]; 61.2 µM (inactive) in experiment [13]. Besides, the values for the GI50 in [14] and in [15] were 20.3 µM (inactive) and 99.5 µM (inactive), respectively.
On to `Cc1nc(C(N)=S)sc1C(=O)C/C(=N/N)C(=O)Nc1ccc(Cl)cc1`, for which the GI50 in experiment [1] is 78.3 µM (inactive); in experiment [2], 84.9 µM (inactive); in experiment [3] it was 72.9 µM (inactive); in experiment [4], greater than 10 µM; in experiment [5] it was > 100 µM (inactive); in experiment [6], 31.3 µM (inactive). The GI50 in [7] is 43.1 µM (inactive); in experiment [8], 46.1 µM (inactive); in experiment [9], 37.5 µM (inactive); in [10], 58.3 µM (inactive); in [11], 55.5 µM (inactive); in experiment [12] it was > 100 µM (inactive). Further, the GI50 in [13] is 99.5 µM (inactive); in [14], 40.6 µM (inactive); in experiment [15] it was > 100 µM (inactive).
Take `CCOC(=O)c1nnsc1NN`: the GI50 was > 100 µM (inactive) in experiment [16]; > 100 µM (inactive) in [1]; > 100 µM (inactive) in experiment [2]; > 100 µM (inactive) in experiment [3]; greater than 100 µM in experiment [4]; 55.5 µM (inactive) in experiment [5]. The GI50 in experiment [7] is 60.5 µM (inactive); in [9], > 100 µM (inactive); in experiment [10] it was 55.5 µM (inactive); in experiment [11] it was 55.8 µM (inactive); in experiment [12], > 100 µM (inactive); in experiment [13], > 100 µM (inactive). For the same molecule, the GI50 in experiment [14] is 39.3 µM (inactive); in [15] it was > 100 µM (inactive).
As for `COc1ccc(/N=N/c2c(C)c(C#N)c(=S)n(C3OC(COC(C)=O)C(OC(C)=O)C(OC(C)=O)C3OC(C)=O)c2C)cc1` (stereo unspecified), the GI50 in [16] was > 100 µM (inactive); in [1] it was > 100 µM (inactive); in experiment [2] it was 57.5 µM (inactive); in [3], > 100 µM (inactive); in experiment [5], > 100 µM (inactive); in experiment [6], > 100 µM (inactive). Besides, the GI50 was > 100 µM (inactive) in experiment [7]; > 100 µM (inactive) in experiment [8]; > 100 µM (inactive) in experiment [9]; > 100 µM (inactive) in experiment [10]; > 100 µM (inactive) in experiment [11]; 8.09 µM (inactive) in experiment [13]. For the same molecule, the GI50 in experiment [14] was 22.5 µM (inactive); in experiment [15], > 100 µM (inactive).
On to `CCOc1ccc(/C=C2\N=C(c3ccccc3)OC2=O)cc1`, for which the GI50 in [1] is > 100 µM (inactive); in [2], > 100 µM (inactive); in [3] it was > 100 µM (inactive); in [4], greater than 100 µM; in experiment [6] it was > 100 µM (inactive); in experiment [7], > 100 µM (inactive). In addition, the GI50 in experiment [9], in experiment [10], in experiment [11], in [12], in experiment [13] and in experiment [15] was > 100 µM (inactive) in each case.
